# Where two headings read alike, the source gives them in different places.
# Key:
# [1] = target: T1, amyloid in brain (aggregated Aβ1-42 injected into amygdaloid nucleus) (Homo sapiens, UniProt P05067); assay: Confirmation of binding to amyloid in brain (in vitro autoradiogram of brain slice); set-up: species or system male Wistar rat; details: rat brain slice immersed in sample solution (0.1 MBq/mL)
# T1 construct: Aβ1-42 (manufactured by Wako); purchased Wako
# Protocol: (1) Aβ1-42 (manufactured by Wako) was dissolved in phosphate buffer (pH 7.4) and shaken at 37° C. for 72 hours, to obtain a 1 mg/mL suspension of aggregated Aβ (hereinafter referred to as amyloid suspension in the present Example).
# (2) Under thiopental anesthesia, the […] of the amyloid suspension was injected into an amygdaloid nucleus on one side of a male Wistar rat (7-week old). As a control, 2.5 μL of a phosphate buffered physiological saline solution (pH 7.4) was injected into an amygdaloid nucleus on the other side of the rat. A brain was removed from the rat a day after the injection of an amyloid suspension and a phosphate buffered physiological saline solution (pH 7.4) to prepare a brain slice of 10 μm in thickness with a microtome (type: CM3050S, manufactured by LEICA).
# (3) Compound 6 in diethylether solution was diluted with a 1% bovine serum albumin/phosphate buffer (hereinafter referred to as 1% PB/BSA in the present Example) to obtain a sample solution (0.1 MBq/mL in radioactivity concentration). […]
# (5) After the completion of the image analysis using the Bio-imaging Analyzer, pathological staining with Thioflavin T was carried out to perform imaging by use of a fluorescence microscope (manufactured by NIKON Corporation; type: TE2000-U model; excitation wavelength: 400-440 nm; detection wavelength: 470 nm). […]
# [2] = test system: Salmonella typhimurium TA98 and TA100, TA1535, TA1537 and Escherichia coli WP2uvrA; assay: Reverse mutation test (Ames test), overall judgment over all strains; format: cell-based
# Protocol: (§1) In order to examine gene mutagenicity of Compound 5, reverse mutation test using Salmonella typhimurium TA98 and TA100, TA1535, TA1537 and Escherichia coli WP2uvrA (hereinafter referred to as Ames test) was conducted.
# (§2) The test was conducted without addition of S9mix and with addition of S9mix. Dimethylsulfoxide (DMSO) was used as a negative control.
# (§3) As a sample solution to be added to a test plate, a 50 mg/mL solution of Compound 5 in DMSO and solutions obtained by diluting this solution with DMSO to have various concentrations were prepared. For positive control without addition of S9mix, when TA98 was used as a test strain, a solution of AF-2 (compound concentration: 1 μg/mL) in DMSO was prepared and used as a sample solution; when TA100 or WP2uvrA was used as a test strain, a solution of AF-2 (compound concentration: 0.1 μg/mL) in DMSO was prepared and used as a sample solution; when TA1535 was used as a test strain, a solution of NaN3 (compound concentration: 5 μg/mL) in water for injection was prepared and used as a sample solution; and when TA1537 was used as a test strain, a solution of 9AA (compound concentration: 800 μg/mL) in DMSO was prepared and used as a sample solution. […]
# [3] = test system: Salmonella typhimurium TA1535; assay: Reverse mutation test (Ames test), strain TA1535; format: cell-based
# Protocol: as §1, §2, §3
# [4] = test system: Salmonella typhimurium TA100; assay: Reverse mutation test (Ames test), strain TA100; format: cell-based
# Protocol: as §1, §2, §3
# [5] = test system: Salmonella typhimurium TA98; assay: Reverse mutation test (Ames test), strain TA98; format: cell-based
# Protocol: as §1, §2, §3
# [6] = test system: Salmonella typhimurium TA1537; assay: Reverse mutation test (Ames test), strain TA1537; format: cell-based
# Protocol: as §1, §2, §3
# [7] = test system: Escherichia coli WP2uvrA; assay: Reverse mutation test (Ames test), strain WP2uvrA; format: cell-based
# Protocol: as §1, §2, §3
# [8] = reported in WO03/106439; cited from earlier work
# [9] = [125I]-labeled compounds; cited from earlier work
# [10] = rats, [11C]-labeled; cited from earlier work
# T1 sequence (P05067 672-713 limits assumed): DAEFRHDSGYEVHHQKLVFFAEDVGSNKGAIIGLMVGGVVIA
smiles,measurement,setting,value
COc1cc(OCCO)ccc1-c1cn2cc([123I])ccc2n1,Binding to intracerebral amyloid,[1],property of binding to intracerebral amyloid
"COc1ccc2nc(-c3ccc(OCCCF)c(I)c3)cn2c1 [Compound 5, 2-[4′-(3″-fluoropropoxy)-3′-iodophenyl]-6-methoxyimidazo[1,2-a]pyridine]",Judgment in the Ames test (mutagenicity),"[2]; all strains, with and without S9mix",negative
same,Number of reverse mutation colonies relative to the negative control,[2]; regardless of addition of S9mix and addition amount,less than two times
same,"Mutagenicity, TA1535",[3]; with addition of S9mix,Negative
same,"Mutagenicity, TA1535",[3]; without addition of S9mix,Negative
same,"Mutagenicity, TA100",[4]; with addition of S9mix,Negative
same,"Mutagenicity, TA100",[4]; without addition of S9mix,Negative
same,"Mutagenicity, TA98",[5]; with addition of S9mix,Negative
same,"Mutagenicity, TA98",[5]; without addition of S9mix,Negative
same,"Mutagenicity, TA1537",[6]; with addition of S9mix,Negative
same,"Mutagenicity, TA1537",[6]; without addition of S9mix,Negative
same,"Mutagenicity, WP2uvrA",[7]; with addition of S9mix,Negative
same,"Mutagenicity, WP2uvrA",[7]; without addition of S9mix,Negative
"CC(=C(C#N)C#N)c1ccc2cc(N(C)CCF)ccc2c1 [FDDNP, 2-(1-{6-[(2-fluoroethyl)(methyl)amino]-2-naphthyl}ethylidene)malononitrile]",Result in reverse mutation test,[8],positive
"CN(C)c1ccc(-c2cn3cc(I)ccc3n2)cc1 [IMPY, 6-iodo-2-[4′-(N,N-dimethylamino)phenyl]imidazo[1,2-a]pyridine]",Result in reverse mutation test,[8],positive
same,Clearance from normal tissues,[9],rapid clearance from normal tissues
"CNc1ccc(/C=C/c2ccc(O)cc2)cc1 [SB-13, (E)-4-methylamino-4′-hydroxystilbene]",Clearance from normal tissues,[10],shows a clearance from normal tissues
